What was measured:
[1] = system: H69 (human small cell lung cancer, Rb-negative) cells; test: Cellular proliferation assay (CellTiter-Glo), H69; format: cell-based; conditions: NCI-H69, 96 h, cell viability after four days
Method: (§1) Further cellular proliferation assays were conducted using the following cancer cell lines: MCF7 (breast adenocarcinoma—Rb-positive), ZR-75-1 (breast ductal carcinoma—Rb-positive), H69 (human small cell lung cancer—Rb-negative) cells, or A2058 (human metastatic melanoma cells—Rb-negative). These cells were seeded in Costar (Tewksbury, Massachusetts) 3093 96 well tissue culture treated white walled/clear bottom plates. Cells were treated with the compounds of Table 1 as nine point dose response dilution series from 10 uM to 1 nM. Cells were exposed to compounds and then cell viability was determined after either four (H69) or six (MCF7, ZR75-1, A2058) days as indicated using the CellTiter-Glo® luminescent cell viability assay (CTG; Promega, Madison, Wisconsin, United States of America) following the manufacturer's recommendations. Plates were read on BioTek (Winooski, Vermont) Syngergy2 multi-mode plate reader. The Relative Light Units (RLU) were plotted as a result of variable molar concentration and data was analyzed using Graphpad (LaJolla, California) Prism 5 statistical software to determine the EC50 for each compound.

[2] = system: MCF7 (breast adenocarcinoma, Rb-positive); test: Cellular proliferation assay (CellTiter-Glo), MCF7; format: cell-based; conditions: Homo sapiens, MCF7, 144 h, cell viability after six days
Method: as §1

[3] = molecular target: CDK4/CyclinD1 (Homo sapiens, UniProt P11802); test: CDK4/cyclinD1 kinase assay (Nanosyn, Caliper microfluidic kinase detection); format: biochemical; conditions: Table 2; 12-point dose-response, ATP at Km (200 μM), 10 hr; read-out: CDK4/CycD1 IC50
Method: The assays were performed using microfluidic kinase detection technology (Caliper Assay Platform). The compounds were tested in 12-point dose-response format in singlicate at Km for ATP. Phosphoacceptor substrate peptide concentration used was 1 μM for all assays and Staurosporine was used as the reference compound for all assays. Specifics of each assay are as described below:
CDK4/CyclinD1: Enzyme concentration: 1 nM; ATP concentration: 200 μM; Incubation time: 10 hr.

[4] = system: A2058 (human metastatic melanoma cells, Rb-negative); test: Cellular proliferation assay (CellTiter-Glo), A2058; format: cell-based; conditions: A2058, 144 h, cell viability after six days
Method: as §1

[5] = system: HS68 cells; test: G1 arrest (cellular G1 and S-phase) assay, propidium iodide flow cytometry; format: cell-based, human; conditions: Homo sapiens, Hs68, HS68 cells
Method: HS68 cells (human skin fibroblast cell line (Rb-positive)) were stained with propidium iodide staining solution and run on Dako Cyan Flow Cytometer. The fraction of cells in G0-G1 DNA cell cycle versus the fraction in S-phase DNA cell cycle was determined using FlowJo 7.2.2 analysis.
The compounds listed in Table 1 were tested for their ability to arrest HS68 cells at the G1 phase of the cell cycle.

[6] = system: ZR-75-1 (breast ductal carcinoma, Rb-positive); test: Cellular proliferation assay (CellTiter-Glo), ZR-75-1; format: cell-based; conditions: Homo sapiens, ZR-75-1, 144 h, cell viability after six days, read-out: ZR75-1 Cellular EC50
Method: as §1

CDK4/CyclinD1, sequence (P11802 whole entry, species assumed): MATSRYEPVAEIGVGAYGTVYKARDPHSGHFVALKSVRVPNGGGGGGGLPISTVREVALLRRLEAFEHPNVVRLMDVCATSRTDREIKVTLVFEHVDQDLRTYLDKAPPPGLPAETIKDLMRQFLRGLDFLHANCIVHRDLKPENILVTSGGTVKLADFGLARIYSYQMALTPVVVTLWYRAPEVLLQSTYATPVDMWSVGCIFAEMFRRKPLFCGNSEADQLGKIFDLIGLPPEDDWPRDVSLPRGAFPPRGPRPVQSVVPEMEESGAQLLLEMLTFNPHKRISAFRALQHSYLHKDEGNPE
CDK4/CyclinD1, sequence (P24385 whole entry partner, species assumed): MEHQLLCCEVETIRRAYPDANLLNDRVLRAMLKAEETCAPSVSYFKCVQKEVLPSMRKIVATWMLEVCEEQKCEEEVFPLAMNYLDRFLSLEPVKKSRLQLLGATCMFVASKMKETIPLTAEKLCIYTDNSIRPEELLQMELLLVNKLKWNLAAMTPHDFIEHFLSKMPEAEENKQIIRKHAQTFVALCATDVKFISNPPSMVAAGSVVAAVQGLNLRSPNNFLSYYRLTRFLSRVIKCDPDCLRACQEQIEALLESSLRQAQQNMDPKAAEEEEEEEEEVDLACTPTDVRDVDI

Compound | EC50 [1] | EC50 [2] | IC50 [3] | EC50 [4] | EC50 [5] | EC50 [6]
CCC(C)CN1CCN(c2ccc(Nc3ncc4cc5n(c4n3)C3(CCCC3)CNC5=O)nc2)CC1 (stereo not drawn) [AAA] | > 3000 nM | 320 nM | 2.3 nM | > 3000 nM | – | –
CC1(C)CN(c2ccc(Nc3ncc4cc5n(c4n3)C3(CCCCC3)CNC5=O)nc2)CCN1C1CC1 [BB] | 2940 nM | – | 0.8 nM | 1640 nM | 75 nM | –
C[C@H]1CN(c2ccc(Nc3ncc4cc5n(c4n3)C3(CCCCC3)CNC5=O)nc2)CCN1CC1CC1 [B] | – | 201 nM | 0.4 nM | – | 90 nM | 245 nM
CC(C)(C)CCN1CCN(c2ccc(Nc3ncc4cc5n(c4n3)C3(CCCC3)CNC5=O)nc2)CC1(C)C [CCC] | – | – | 2 nM | – | 250 nM | –
C[C@H](O)CN1CCN(c2ccc(Nc3ncc4cc5n(c4n3)C3(CCCCC3)CNC5=O)nc2)C[C@@H]1C [C] | – | 88 nM | 1.4 nM | – | 95 nM | 73 nM
C[C@@H]1CN(c2ccc(Nc3ncc4cc5n(c4n3)C3(CCCC3)CNC5=O)nc2)C[C@H](C)N1 [DDD] | – | – | 9.5 nM | – | 350 nM | –
C[C@@H]1CN(c2ccc(Nc3ncc4cc5n(c4n3)C3(CCCCC3)CNC5=O)nc2)C[C@H](C)N1C [DD] | – | – | 1.9 nM | – | 100 nM | –
CC(C)(O)CN1CCN(c2ccc(Nc3ncc4cc5n(c4n3)C3(CCCC3)CNC5=O)nc2)CC1 [EEE] | > 3000 nM | 453 nM | – | > 3000 nM | 250 nM | –
CC(C)N1CCN(Cc2ccc(Nc3ncc4cc5n(c4n3)C3(CCCCC3)CNC5=O)nc2)CC1 [EE] | – | 216 nM | 3.8 nM | – | 125 nM | 203 nM
CCC(C)CN1CCN(c2ccc(Nc3ncc4cc5n(c4n3)C3(CCCC3)CNC5=O)nc2)CC1 (stereo not drawn) [FFF] | – | – | 4.7 nM | – | – | –
CCN1[C@H](C)CN(c2ccc(Nc3ncc4cc5n(c4n3)C3(CCCCC3)CNC5=O)nc2)C[C@@H]1C [FF] | – | 140 nM | – | – | 80 nM | –
O=C1NCC2(CCCCC2)n2c1cc1cnc(Nc3ccc(N4CCN(C5CCC5)CC4)cn3)nc12 [F] | – | – | 1.5 nM | – | 175 nM | –
CC(C)N1CCN(c2ccc(Nc3ncc4cc5n(c4n3)C3(CCCC3)CNC5=O)nc2)CC1C (stereo not drawn) [GGG] | – | – | 13.7 nM | – | 350 nM | –
CC1CN(c2ccc(Nc3ncc4cc5n(c4n3)C3(CCCCC3)CNC5=O)nc2)CCN1CCC(C)(C)C (stereo not drawn) [G] | – | – | 1.5 nM | – | 175 nM | –
O=C1NCC2(CCCC2)n2c1cc1cnc(Nc3ccc(N4CCC(N5CCCCC5)CC4)cn3)nc12 [HHH] | – | – | 6.8 nM | – | 250 nM | –
O=C1NCC2(CCCCC2)n2c1cc1cnc(Nc3ccc(N4CCN(CC5CC5)CC4)cn3)nc12 [HH] | – | – | 1.7 nM | – | 110 nM | –
CC(C)N1CCN(c2ccc(Nc3ncc4cc5n(c4n3)C3(CCCC3)CNC5=O)nc2)CC1 [III] | – | – | 6 nM | – | 250 nM | –
CCC(C)CN1[C@H](C)CN(c2ccc(Nc3ncc4cc5n(c4n3)C3(CCCC3)CNC5=O)nc2)C[C@@H]1C (stereo partly drawn) [JJJ] | – | – | 3.2 nM | – | 240 nM | –
CCN(CC)C1CCN(C(=O)c2ccc(Nc3ncc4cc5n(c4n3)C3(CCCCC3)CNC5=O)nc2)C1 (stereo not drawn) [JJ] | > 3000 nM | 122 nM | 1.4 nM | > 3000 nM | 90 nM | –
CC(C)(C)CCN1CCN(c2ccc(Nc3ncc4cc5n(c4n3)C3(CCCC3)CNC5=O)nc2)CC1 [KKK] | – | – | 1.3 nM | – | 190 nM | –
C[C@H]1CN(c2ccc(Nc3ncc4cc5n(c4n3)C3(CCCCC3)CNC5=O)nc2)CCN1 [KK] | 2420 nM | 333 nM | 2.3 nM | 1380 nM | 22 nM | –
CC1CCN(C2CCN(c3ccc(Nc4ncc5cc6n(c5n4)C4(CCCCC4)CNC6=O)nc3)CC2)C1 (stereo not drawn) [K] | > 3000 nM | 43 nM | 1 nM | 1790 nM | 28 nM | –

More lines, now with the values ahead:

EC50 [1] | EC50 [2] | IC50 [3] | EC50 [4] | EC50 [5] | EC50 [6] | Compound
– | – | 3.2 nM | – | 250 nM | – | CCN(CC)C1CCN(c2ccc(Nc3ncc4cc5n(c4n3)C3(CCCC3)CNC5=O)nc2)CC1 [LLL]
> 3000 nM | 96 nM | 2 nM | > 3000 nM | 125 nM | – | O=C1NCC2(CCCCC2)n2c1cc1cnc(Nc3ccc(C(=O)N4CCN(C5CCC5)CC4)cn3)nc12 [LL]
2160 nM | 506 nM | – | > 3000 nM | 65 nM | – | CC(C)N1CCN(c2ccc(Nc3ncc4cc5n(c4n3)C3(CCCCC3)CNC5=O)nc2)C[C@H]1C [L]
– | – | – | – | 100 nM | – | C[C@H]1CN(c2ccc(Nc3ncc4cc5n(c4n3)C3(CCCCC3)CNC5=O)nc2)CCN1CCC(C)(C)C [M]
– | – | 1.4 nM | – | 210 nM | – | CC1CN(c2ccc(Nc3ncc4cc5n(c4n3)C3(CCCC3)CNC5=O)nc2)CCN1CC1CC1 (stereo not drawn) [NNN]
– | – | 3.7 nM | – | 110 nM | – | C[C@@H]1CN(c2ccc(Nc3ncc4cc5n(c4n3)C3(CCCCC3)CNC5=O)nc2)CCN1C [NN]
> 3000 nM | 138 nM | 2.4 nM | > 3000 nM | 200 nM | – | O=C1NCC2(CCCC2)n2c1cc1cnc(Nc3ccc(C(=O)N4CCN(CC5CC5)CC4)cn3)nc12 [OOO]
– | – | – | – | 275 nM | – | CC1CN(c2ccc(Nc3ncc4cc5n(c4n3)C3(CCCC3)CNC5=O)nc2)CCN1CCC(C)(C)C (stereo not drawn) [PPP]
– | 164 nM | 3.1 nM | – | 100 nM | 66 nM | CC(C)N1CCN(c2ccc(Nc3ncc4cc5n(c4n3)C3(CCCCC3)CNC5=O)nc2)CC1C (stereo not drawn) [PP]
– | – | 10.5 nM | – | 500 nM | – | O=C1NCC2(CCCC2)n2c1cc1cnc(Nc3ccc(N4CCNCC4)cn3)nc12 [QQQ]
> 3000 nM | – | 4.1 nM | > 3000 nM | – | – | CCN(CC)C1CCN(c2ccc(Nc3ncc4cc5n(c4n3)C3(CCCCC3)CNC5=O)nc2)C1 (stereo not drawn) [QQ]
– | – | 2.6 nM | – | 400 nM | – | CC(C)N1CCN(c2ccc(Nc3ncc4cc5n(c4n3)C3(CCCC3)CNC5=O)nn2)CC1 [RRR]
2890 nM | 72 nM | 1.2 nM | 1620 nM | 90 nM | – | CCN(CC)C1CCN(C2CCN(c3ccc(Nc4ncc5cc6n(c5n4)C4(CCCCC4)CNC6=O)nc3)CC2)C1 (stereo not drawn) [RR]
– | – | 2 nM | – | 1500 nM | – | O=C1NCC2(CCCC2)n2c1cc1cnc(Nc3ccc(N4CCOCC4)nn3)nc12 [SSS]
> 3000 nM | 76 nM | – | > 3000 nM | 150 nM | – | C[C@@H](O)CN1CCN(c2ccc(Nc3ncc4cc5n(c4n3)C3(CCCCC3)CNC5=O)nc2)CC1 [S]
– | – | 3.4 nM | – | 350 nM | – | CN(C)C1CCN(c2ccc(Nc3ncc4cc5n(c4n3)C3(CCCC3)CNC5=O)nn2)CC1 [TTT]
– | – | 0.8 nM | – | 75 nM | – | CC(C)N1CCN(c2ccc(Nc3ncc4cc5n(c4n3)C3(CCCCC3)CNC5=O)nn2)CC1 [TT]
– | – | – | – | 300 nM | – | CC(C)[C@H]1CNC(=O)c2cc3cnc(Nc4ccc(N5CCNCC5)cn4)nc3n21 [UUU]
– | – | – | – | 300 nM | – | CCC(C)[C@@H]1CNC(=O)c2cc3cnc(Nc4ccc(N5CCNCC5)cn4)nc3n21 (stereo partly drawn) [VVV]
– | – | 3.3 nM | – | 200 nM | – | C[C@@H](O)CN1CCN(c2ccc(Nc3ncc4cc5n(c4n3)C3(CCCC3)CNC5=O)nc2)C[C@@H]1C [VV]
– | – | 18.5 nM | – | 300 nM | – | CC(C)C[C@@H]1CNC(=O)c2cc3cnc(Nc4ccc(N5CCNCC5)cn4)nc3n21 [WWW]
> 3000 nM | 294 nM | 2.7 nM | > 3000 nM | 160 nM | – | CC1CN(c2ccc(Nc3ncc4cc5n(c4n3)C3(CCCCC3)CNC5=O)nc2)CCN1CC(C)(C)O (stereo not drawn) [W]
– | – | 11.4 nM | – | 300 nM | – | CC(C)C[C@@H]1CNC(=O)c2cc3cnc(Nc4ccc(N5CCN(C)CC5)cn4)nc3n21 [XXX]
– | – | 1.3 nM | – | 225 nM | – | C[C@H](O)CN1CCN(c2ccc(Nc3ncc4cc5n(c4n3)C3(CCCC3)CNC5=O)nc2)C[C@H]1C [XX]
> 3000 nM | – | 0.9 nM | > 3000 nM | 65 nM | – | O=C1NCC2(CCCCC2)n2c1cc1cnc(Nc3ccc(N4CCC(N5CCC(C(F)(F)F)CC5)CC4)cn3)nc12 [X]
– | – | 2.5 nM | – | 350 nM | – | O=C1NCC2(CCCCC2)n2c1cc1cnc(Nc3ccc(C(=O)N4CCNCC4)cn3)nc12 [Y]
– | – | 10.5 nM | – | 500 nM | – | CN1CCN(c2ccc(Nc3ncc4cc5n(c4n3)C3(CCCC3)CNC5=O)nc2)CC1 [ZZ]

Source: US12285431B2, “Treatment of Rb-negative tumors using topoisomerase inhibitors in combination with cyclin dependent kinase 4/6 inhibitors” (G1 Therapeutics, Inc., priority 2014, dated 2025)
